Results reported in patent US9409917B2, “Heterocyclic amide derivatives as P2X7 receptor antagonists” (ACTELION PHARMACEUTICALS LTD., priority 2012, dated 2016).
pIC50: −log10 of the molar value. Where two headings read alike, the source gives them in different places.

Molecular target: human recombinant P2X7 receptor (Homo sapiens (Human), UniProt Q99572)
Test: YO-PRO assay: P2X7 receptor antagonistic activity (ATP-induced YO-PRO-1 uptake, FLIPR)
Details: for IC50: read-out: IC50 [nM], antagonistic activities with respect to the P2X7 receptor
[1] = HEK-293 cells expressing human recombinant P2X7 receptor, YO-PRO-1 fluorescence, ATP 250 μM, 90 minutes, highest concentration 10 μM

Sequence of human recombinant P2X7 receptor (Q99572 whole entry): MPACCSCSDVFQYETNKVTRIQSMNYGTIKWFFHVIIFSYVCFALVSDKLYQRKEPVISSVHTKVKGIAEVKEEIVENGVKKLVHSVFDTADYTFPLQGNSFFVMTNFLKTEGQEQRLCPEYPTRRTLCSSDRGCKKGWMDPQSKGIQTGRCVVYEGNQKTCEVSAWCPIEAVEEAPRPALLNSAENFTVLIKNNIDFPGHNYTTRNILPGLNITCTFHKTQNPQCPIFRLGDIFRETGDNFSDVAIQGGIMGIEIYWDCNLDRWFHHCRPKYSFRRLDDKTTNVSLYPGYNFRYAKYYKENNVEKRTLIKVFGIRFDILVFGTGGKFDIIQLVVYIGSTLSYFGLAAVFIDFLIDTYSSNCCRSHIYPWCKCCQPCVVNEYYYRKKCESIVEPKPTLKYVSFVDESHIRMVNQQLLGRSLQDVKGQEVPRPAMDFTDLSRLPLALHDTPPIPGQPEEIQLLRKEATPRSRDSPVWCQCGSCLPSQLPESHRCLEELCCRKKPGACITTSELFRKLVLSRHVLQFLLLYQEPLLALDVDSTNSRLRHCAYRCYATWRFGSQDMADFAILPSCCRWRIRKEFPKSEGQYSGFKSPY

CN(Cc1ccc(Cl)cc1)C(=O)C1COc2ncccc21 (racemic) [Example 48, rac-2,3-Dihydro-furo[2,3-b]pyridine-3-carboxylic acid (4-chloro-benzyl)-methyl-amide]
pIC50: 5.96

O=C(NCCc1ccc(Cl)cc1Cl)C1COc2ncccc21 (racemic) [Example 49, rac-2,3-Dihydro-furo[2,3-b]pyridine-3-carboxylic acid [2-(2,4-dichloro-phenyl)-ethyl]-amide]
pIC50: 6.80

O=C(NCc1c(Cl)cc(Cl)cc1OCCO)C1COc2ncccc21 (racemic) [Example 50, rac-2,3-Dihydro-furo[2,3-b]pyridine-3-carboxylic acid 2,4-dichloro-6-(2-hydroxy-ethoxy)-benzylamide]
pIC50: 7.26

O=C(NCc1c(Cl)cc(Cl)cc1CO)C1CCOc2ncccc21 (racemic) [Example 51, rac-3,4-Dihydro-2H-pyrano[2,3-b]pyridine-4-carboxylic acid 2,4-dichloro-6-hydroxymethyl-benzylamide]
pIC50: 8.25

O=C(NCc1ccc(OC(F)(F)F)c(F)c1)C1CCOc2ncccc21 (racemic) [Example 53, rac-3,4-Dihydro-2H-pyrano[2,3-b]pyridine-4-carboxylic acid 3-fluoro-4-trifluoromethoxy-benzylamide]
pIC50: 5.93

O=C(NCC1(c2ccccc2)CCCCC1)C1CCOc2ncccc21 (racemic) [Example 54, rac-3,4-Dihydro-2H-pyrano[2,3-b]pyridine-4-carboxylic acid (1-phenyl-cyclohexylmethyl)-amide]
pIC50: 7.59

O=C(NCc1cccc(C(F)(F)F)c1Cl)C1(F)COc2ncccc21 (racemic) [Example 55, rac-3-Fluoro-2,3-dihydro-furo[2,3-b]pyridine-3-carboxylic acid 2-chloro-3-trifluoromethyl-benzylamide]
pIC50: 7.38

O=C(NC1(c2ccc(Cl)cc2Cl)CC1)C1CCOc2ncccc21 (racemic) [Example 58, rac-3,4-Dihydro-2H-pyrano[2,3-b]pyridine-4-carboxylic acid [1-(2,4-dichloro-phenyl)-cyclopropyl]-amide]
pIC50: 5.57

N#Cc1ccc(CNC(=O)C2COc3ncccc32)c(Cl)c1 (racemic) [Example 61, rac-2,3-Dihydro-furo[2,3-b]pyridine-3-carboxylic acid 2-chloro-4-cyano-benzylamide]
pIC50: 6.41

NC(=O)C1(NC(=O)C2COc3ncccc32)CCCC1 (racemic) [Example 63, rac-2,3-Dihydro-furo[2,3-b]pyridine-3-carboxylic acid (1-carbamoyl-cyclopentyl)-amide]
pIC50: 5.41

O=C(NCc1c(Cl)cc(Cl)cc1C(F)(F)F)C1COc2ncccc21 (racemic) [Example 68, rac-2,3-Dihydro-furo[2,3-b]pyridine-3-carboxylic acid 2,4-dichloro-6-trifluoromethyl-benzylamide]
pIC50: 7.86

COCc1cc(Cl)cc(Cl)c1CNC(=O)C1COc2ncccc21 (racemic) [Example 72, rac-2,3-Dihydro-furo[2,3-b]pyridine-3-carboxylic acid 2,4-dichloro-6-methoxymethyl-benzylamide]
pIC50: 7.84

O=C1CC(NC(=O)C2COc3ncccc32)c2ccccc21 (racemic) [Example 88, rac-2,3-Dihydro-furo[2,3-b]pyridine-3-carboxylic acid (3-oxo-indan-1-yl)-amide]
pIC50: 5.84

O=C1CC(NC(=O)C2COc3ncccc32)c2ccccc21 (racemic) [Example 89, rac-2,3-Dihydro-furo[2,3-b]pyridine-3-carboxylic acid (3-oxo-indan-1-yl)-amide]
pIC50: 5.60

O=C(NCc1c(Cl)cc(Cl)cc1COCCO)C1COc2ncccc21 (racemic) [Example 93, rac-2,3-Dihydro-furo[2,3-b]pyridine-3-carboxylic acid 2,4-dichloro-6-(2-hydroxy-ethoxymethyl)-benzylamide]
pIC50: 7.94

[2H]C([2H])([2H])c1cc(Cl)cc(Cl)c1CNC(=O)C1COc2ncccc21 (racemic) [Example 96, rac-2,3-Dihydro-furo[2,3-b]pyridine-3-carboxylic acid 2,4-dichloro-6-trideuteromethyl-benzylamide]
pIC50: 8.57

O=C(NCc1ccc(C(F)(F)F)cc1Cl)C1COc2ncccc21 (racemic) [Example 103, rac-2,3-Dihydro-furo[2,3-b]pyridine-3-carboxylic acid 2-chloro-4-trifluoromethyl-benzylamide]
pIC50: 7.09

O=C(NCCCc1ccc(Cl)cc1Cl)C1COc2ncccc21 (racemic) [Example 106, rac-2,3-Dihydro-furo[2,3-b]pyridine-3-carboxylic acid [3-(2,4-dichloro-phenyl)-propyl]-amide]
pIC50: 6.46

O=C(NCc1c(Cl)cc(Cl)cc1Cl)C1COc2ncccc21 (racemic) [Example 114, rac-2,3-Dihydro-furo[2,3-b]pyridine-3-carboxylic acid 2,4,6-trichloro-benzylamide]
pIC50: 7.90

Cc1cc(Cl)cc(Cl)c1CNC(=O)C1COc2c1ccc[n+]2[O-] (racemic) [Example 115, rac-7-Oxy-2,3-dihydro-furo[2,3-b]pyridine-3-carboxylic acid 2,4-dichloro-6-methyl-benzylamide]
IC50: 35.4 nM

O=C(NCc1c(Cl)cccc1CO)C1COc2ncccc21 (racemic) [Example 118, rac-2,3-Dihydro-furo[2,3-b]pyridine-3-carboxylic acid 2-chloro-6-hydroxymethyl-benzylamide]
pIC50: 6.52

O=C(N[C@H](CO)C1CCCCC1)C1COc2ncccc21 (single isomer, unassigned) [Example 1]
IC50 [1]: 1070 nM

O=C(N[C@H](CO)C1CCCCC1)C1COc2ncccc21 (single isomer, unassigned) [Example 2]
IC50 [1]: 106 nM

Cc1cc(Cl)cc(Cl)c1CNC(=O)C1COc2ncccc21 (single isomer, unassigned) [Example 3, 2,3-Dihydro-furo[2,3-b]pyridine-3-carboxylic acid 2,4-dichloro-6-methyl-benzylamide]
IC50 [1]: 18.3 nM

Cc1cc(Cl)cc(Cl)c1CNC(=O)C1COc2ncccc21 (single isomer, unassigned) [Example 4, 2,3-Dihydro-furo[2,3-b]pyridine-3-carboxylic acid 2,4-dichloro-6-methyl-benzylamide]
IC50 [1]: 2.9 nM

O=C(N[C@H](CO)c1ccc(Cl)cc1Cl)C1COc2ncccc21 (single isomer, unassigned) [Example 6]
IC50 [1]: 621 nM

O=C(N[C@H](CO)c1ccc(Cl)cc1Cl)C1COc2ncccc21 (single isomer, unassigned) [Example 7]
IC50 [1]: 117 nM

O=C(NC(CO)C1CCCCCC1)C1COc2ncccc21 (single isomer, unassigned) [Example 13, rac-2,3-Dihydro-furo[2,3-b]pyridine-3-carboxylic acid (1-cycloheptyl-2-hydroxy-ethyl)-amide]
pIC50: 6.09

O=C(NC(CO)C1CCCCCC1)C1COc2ncccc21 (single isomer, unassigned) [Example 14, rac-2,3-Dihydro-furo[2,3-b]pyridine-3-carboxylic acid (1-cycloheptyl-2-hydroxy-ethyl)-amide]
pIC50: 6.93

Cc1cc(Cl)cc(Cl)c1CNC(=O)C1CCOc2ncccc21 (single isomer, unassigned) [Example 17, 3,4-Dihydro-2H-pyrano[2,3-b]pyridine-4-carboxylic acid 2,4-dichloro-6-methyl-benzylamide]
IC50 [1]: 1.3 nM

Cc1cc(Cl)cc(Cl)c1CNC(=O)C1CCOc2ncccc21 (single isomer, unassigned) [Example 18, 3,4-Dihydro-2H-pyrano[2,3-b]pyridine-4-carboxylic acid 2,4-dichloro-6-methyl-benzylamide]
IC50 [1]: 1.6 nM

O=C(NCc1c(Cl)cc(Cl)cc1CO)C1COc2ncccc21 (single isomer, unassigned) [Example 24, 2,3-Dihydro-furo[2,3-b]pyridine-3-carboxylic acid 2,4-dichloro-6-hydroxymethyl-benzylamide]
IC50 [1]: 39.4 nM

O=C(NCc1c(Cl)cc(Cl)cc1CO)C1COc2ncccc21 (single isomer, unassigned) [Example 25, 2,3-Dihydro-furo[2,3-b]pyridine-3-carboxylic acid 2,4-dichloro-6-hydroxymethyl-benzylamide]
IC50 [1]: 2.7 nM

Cc1ncc(C(CNC(=O)C2COc3ncccc32)N2CCC(F)(F)CC2)cn1 (single isomer, unassigned) [Example 27, rac-2,3-Dihydro-furo[2,3-b]pyridine-3-carboxylic acid [2-(4,4-difluoro-piperidin-1-yl)-2-(2-methyl-pyrimidin-5-yl)-ethyl]-amide]
pIC50: 5.87

Cc1ncc(C(CNC(=O)C2COc3ncccc32)N2CCC(F)(F)CC2)cn1 (single isomer, unassigned) [Example 28, rac-2,3-Dihydro-furo[2,3-b]pyridine-3-carboxylic acid [2-(4,4-difluoro-piperidin-1-yl)-2-(2-methyl-pyrimidin-5-yl)-ethyl]-amide]
pIC50: 7.23

O=C(NCC(c1cnc(C(F)(F)F)nc1)N1CCOCC1)C1COc2ncccc21 (single isomer, unassigned) [Example 59, rac-2,3-Dihydro-furo[2,3-b]pyridine-3-carboxylic acid [2-morpholin-4-yl-2-(2-trifluoromethyl-pyrimidin-5-yl)-ethyl]-amide]
pIC50: 6.46

O=C(NCC(c1cnc(C(F)(F)F)nc1)N1CCOCC1)C1COc2ncccc21 (single isomer, unassigned) [Example 60, rac-2,3-Dihydro-furo[2,3-b]pyridine-3-carboxylic acid [2-morpholin-4-yl-2-(2-trifluoromethyl-pyrimidin-5-yl)-ethyl]-amide]
pIC50: 7.54

O=C(NCc1c(Cl)cc(Cl)cc1Br)C1COc2ncccc21 (single isomer, unassigned) [Example 79, 2,3-Dihydro-furo[2,3-b]pyridine-3-carboxylic acid 2-bromo-4,6-dichloro-benzylamide]
IC50 [1]: 51.1 nM
